For data set [1] the following is noted: application to skin of rats; cited from earlier work.
For data set [2] the following is noted: oral, in chylomicrons; cited from earlier work.
Data set [3] in a line: Experiment 5: [14C]-vitamin D3 left on skin at application site. The data set is classed as in vivo, Male Wistar rats. The conditions noted are these: for % [14C]-D3 Left on Skin: 2 weeks, 1440 min. As to the method:
This experiment was to compare potential toxic effects of vitamin D3 given for a 2 wk period, at the near-fatal dose of 800 μg per day by gastric tube, or by dermal administration at 800 μg/day or 2600 μg/day. Another goal was find evidence of saturable dermal uptake by including [^14 C]-vitamin D3 to monitor its removal from the skin at the high doses of vitamin D3.
Male Wistar rats, 190±10 g were obtained and divided into three groups of 7. They were treated for 2 weeks with one the following: 2000 nmol/day of vitamin D3 by gastric tube; 800 μg/day applied to a 2×2 cm patch of skin on the back; 2600 μg/day skin. The day before killing, 66,000 counts per minute of [^14 C]-vitamin D3 was applied along with the dermal dose to permit a determination of uptake from the skin. The rats were killed after two weeks for analysis of serum, urine, kidney, and aorta. The calcium in urine and acid-treated homogenate of kidney was measured by chemical colorimetry; aorta calcium was measured by treating with nitric acid measuring calcium by atomic absorption.

A short description of data set [4]: Experiment 2: uptake of [14C]-vitamin D3 tracer into serum and conversion to [14C]-25(OH)D3. Format: in vivo, Male Wistar rats. The protocol:
One dose of [carbon-14]-labelled vitamin D3 was given at the time of the last of 14 daily doses of nonradioactive vitamin D3. The graphs show the uptake and metabolism of one [^14 C]-vitamin D3 dose during the course of gastric or dermal supplementation with vitamin D3. The tracer was given in addition to the usual, 8 μg/day vitamin D3 dose, and by the same route. Radioactivity in serum was isolated by chromatography to measure that which elutes as vitamin D3, or as […], Each point is the mean of results from six rats;
Uptake of radioactive vitamin D3 from skin or gut during the longer term treatment with vitamin D3 at 20 nmol/day.
The previous experiment 1 involved only one acute dose of a minute, tracer amount of vitamin D3. It remained possible that dermal application could not deliver a larger, more nutritionally relevant amount of vitamin D3. This experiment 2 looked at what happens when vitamin D3 is given during the course of daily treatment with a moderate amount of vitamin D3.
After 30 days, the rats were divided into three groups of 6: one group continued with no supplement, one group was given daily vitamin D3 supplement, 8 μg/day either by gastric tube, the third received the supplement by application to the skin in 50 μL ethanol. Vitamin D3 was given for 3 wk. The day before the rats were killed, the vitamin D3 dose was supplemented with [^14 C]-labelled vitamin D3, 915,000 cpm per rat. Blood was obtained from the tail of each rat at 3 h, 9 h, and by heart puncture when the rats were anesthetized for killing, 24 h after giving the tracer. The blood was extracted and chromatographed to distinguish [^14 C]-vitamin D3 from the [^14 C]-25(OH)D3generated from it. Radioactivity was also measured in the liver, kidney, and adipose tissue. Serum nonradioactive 25(OH)D3 was also measured.

The source of these data is patent US5532229A, “Topical administration of vitamin D to mammals” (priority 1994, dated 1996).

On to `C[C@H](CCCC(C)(C)O)[C@H]1CC[C@H]2C3=CC=C4CC(O)CC(O)[C@]4(C)[C@H]3CC[C@]12C` (stereo partly shown) [1,25-dihydroxylated-7-dehydrocholesterol], for which, in data set [1], the intestinal calcium transport entry is “increased” and the serum calcium entry was “increased”.

For `C=C1CC[C@H](O)C/C1=C/C=C1\CCC[C@]2(C)[C@@H]([C@H](C)/C=C/[C@H](C)C(C)C)CC[C@@H]12` [vitamin D2], in data set [2], the “activation into 25-hydroxyvitamin D2” value was “partially activated into 25-hydroxyvitamin D2 relatively quickly”.

In the case of `C=C1/C(=C\C=C2/CCC[C@]3(C)[C@@H]([C@H](C)CCCC(C)(C)O)CC[C@@H]23)C[C@@H](O)C[C@@H]1O` [1,25(OH)2 D3], in data set [1], the intestinal calcium transport entry is recorded as “increased” and the serum calcium result was “increased”.

For `C=C1CC[C@H](O)[14CH2]/C1=C/C=C1\CCC[C@]2(C)[C@@H]([C@H](C)CCCC(C)C)CC[C@@H]12` [[^14 C]-vitamin D3], the “% [14C]-D3 Left on Skin” value amounted to 47.8% in data set [3] (dermal 800 μg/day) and 65.6% in data set [3] (dermal 2600 μg/day). Besides, the “proportion of administered vitamin D3 left in the skin, effect of dose” value in data set [3] (dermal 800 vs 2600 μg/day) was “only marginally affected by the dose”. Further, the “time until [14C]-25(OH)D3 evident in serum” value in data set [4] (dermal administration, after dosing) is reported as at least 24 h. For the same compound, the “[14C]-25(OH)D3 detection in serum” value in data set [4] (oral dosing) is “detected in every sample”.
